# Publication PMC10216263, “Favorable Preclinical Pharmacological Profile of a Novel Antimalarial Pyrrolizidinylmethyl Derivative of 4-amino-7-chloroquinoline with Potent In Vitro and In Vivo Activities” (Biomolecules, 2023)
# Several values for one entry are separate records, joined by “and”; a condition that tells them apart may be missing. Equal entries are not always repeated. Where two headings read alike, the source gives them in different places.
# What was measured:
# [1] = tested on: P. falciparum TM90C2A (CQ-R); assay: In vitro antimalarial activity, [3H]-hypoxanthine incorporation (LSHTM); format: cell-based; settings: Plasmodium falciparum, 72 h, [3H]-hypoxanthine incorporation, mean of 3 experiments, read-out: P. falciparum IC50 nM, TM90C2A (CQ-R)
# [2] = tested on: P. falciparum IPC5202 (ARM-R); assay: microbe, parasite or virus in culture; format: cell-based
# Experimental: The strains D10 and 3D7 (CQ-Sensitive), and V1-S (CQ, pyrimethamine and cycloguanil resistant), K1 (CQ and PYR resistant), W2 and FCR3 (CQ-Resistant), TM90C2A (CQ, MQ, PYR and ATQ resistant) and IPC 5202 (MR4-1240, artemisinin-resistant, K13 mutation, and R539T) of Pf were cultured in vitro as described by Trager and Jensen with minor modifications. Briefly, parasites were maintained at 5% hematocrit (human type A-positive red blood cells) in RPMI 1640 (EuroClone, S.p.A. Milan, Italy) medium with the addition of 10% heat inactivate human serum or 1% AlbuMax (In vitrogen, Milan, Italy), 20 mM Hepes and 2 mM glutamine (Euroclone), at 37 °C in a standard gas mixture consisting of 1–3% O2, 5% CO2, and 92–94% N2.
# Compounds were dissolved in either water or DMSO and then diluted with medium to achieve the required concentrations (final non-toxic DMSO concentration <1%). Asynchronous cultures of Pf with parasitaemia of 1–1.5% and 1% final hematocrit were aliquoted into 96-well flat-bottom microplates (Corning, Glendale, AZ, USA) with serial dilutions of test compounds and incubated for 72 h at 37 °C. Parasite growth was determined spectrophotometrically (OD650) by measuring the activity of the parasite lactate dehydrogenase (pLDH) according to a modified version of the method of Makler in control and drug-treated cultures.
# [3] = tested on: P. yoelii NS; assay: Four-day suppressive Peters' test, oral; format: in vivo, P. yoelii in CD1 mice; settings: once a day for 4 days, parasitemia day 4, CD1 mice
# Experimental: Groups of five CD1 mice were inoculated i.v., with 4 × 10^6 infected erythrocytes/mice. Compounds, dissolved in standard suspending formula (SSV) (0.5% sodium carboxymethylcellulose, 0.5% benzyl alcohol, 0.4% Tween 80, and 0.9% NaCl), were administered once a day for 4 days via oral gavage, starting two hours post-infection. […] Parasitemia was evaluated using microscopic examination of Giemsa-stained blood films taken on day four, processed using MICROSOFT® EXCEL spreadsheets (Microsoft Corp., Redmond, WA, USA), and expressed as percentages of inhibition from the arithmetic mean parasitemia of each group in relation to the untreated group. ED50 and ED90 values were calculated using GraphPad Prism 6 (GraphPad Software Inc., La Jolla, CA, USA).
# [4] = tested on: P. falciparum D10 (CQ-S); design: method as in PMID 18538567; settings: 72 h incubation, pLDH method, mean of 3 experiments; cited from earlier work
# [5] = tested on: Salmonella typhimurium TA98; assay: Bacterial Reverse Mutation Assay; settings: TA 98, with metabolic activation
# Experimental: using the preincubation method (30 min, 37°C) with and without phenobarbital-5,6-benzoflavone induced
# MG3 was dissolved in distilled water (H2O) at
# the maximum concentration of 40 mg/mL and tested in a preliminary range-finding test in all strains of
# metabolic activation to determine the toxicity of the compound.
compound,measurement,setting,value
"Clc1ccc2c(NCC34CCCN3CCC4)ccnc2c1 [MG3, 7-Chloro-N-((hexahydro-1H-pyrrolizin-7a-yl)methyl)quinolin-4-amine]",IC50,[1],14.4 nM
same,IC50,"[2]; Plasmodium falciparum, 72 h, read-out: P. falciparum IC50 nM, IPC5202 (ARM-R), 72 h incubation, pLDH method",< 15 nM
same,IC50,"[2]; read-out: P. falciparum IC50 nM, IPC5202 (ARM-R), 72 h incubation, pLDH method",10 nM and 10.7 nM
same,ED50,"[3]; Plasmodium yoelii, 96 h, read-out: ED50 (95% CI) Mean",5.01 mg/kg
same,ED90 (95% CI) Mean,[3],8.98 (6.70–12.02) mg/kg
same,IC50,[4],30.6 nM
same,fold increase value (ratio treated/solvent revertant numbers),"[5]; I° Exp., 1000 µg/plate",1.1
same,fold increase value (ratio treated/solvent revertant numbers),"[5]; I° Exp., 62.5 g/plate",1.1
same,fold increase value (ratio treated/solvent revertant numbers),"[5]; I° Exp., 125 g/plate",1.2
same,fold increase value (ratio treated/solvent revertant numbers),"[5]; I° Exp., 250 g/plate",1.4
same,fold increase value (ratio treated/solvent revertant numbers),"[5]; I° Exp., 500 g/plate",1.5
same,fold increase value (ratio treated/solvent revertant numbers),"[5]; Range finding, 1000 µg/plate",1.0
same,fold increase value (ratio treated/solvent revertant numbers),"[5]; Range finding, 1.95 g/plate",0.9
same,fold increase value (ratio treated/solvent revertant numbers),"[5]; Range finding, 3.9 g/plate",0.9
same,fold increase value (ratio treated/solvent revertant numbers),"[5]; Range finding, 7.81 g/plate",1.5
same,fold increase value (ratio treated/solvent revertant numbers),"[5]; Range finding, 15.63 g/plate",1.2
same,fold increase value (ratio treated/solvent revertant numbers),"[5]; Range finding, 31.25 g/plate",1.0
same,fold increase value (ratio treated/solvent revertant numbers),"[5]; Range finding, 62.5 g/plate",1.3
same,fold increase value (ratio treated/solvent revertant numbers),"[5]; Range finding, 125 g/plate",1.3
same,fold increase value (ratio treated/solvent revertant numbers),"[5]; Range finding, 250 g/plate",1.2
same,fold increase value (ratio treated/solvent revertant numbers),"[5]; Range finding, 500 g/plate",1.2
